These results are taken from PubChem BioAssay AID1061 (NMMLSC, 2008).

The experiment concerns the target N-formyl peptide receptor 2 (Homo sapiens) (UniProt P25090). Nature of the experiment: FPR2 antagonism measured by calcium flux – cell-based, calcium response, secondary assay, SAR follow-up (AID 1061). Conditions: FPRL1-expressing cells, antagonist mode, at 100 µM, stronger effect = higher value.

Activity calls are given as the source filed them. How the calls were made is not given here.

Sequence of N-formyl peptide receptor 2 (Homo sapiens) (P25090 whole entry, looked up): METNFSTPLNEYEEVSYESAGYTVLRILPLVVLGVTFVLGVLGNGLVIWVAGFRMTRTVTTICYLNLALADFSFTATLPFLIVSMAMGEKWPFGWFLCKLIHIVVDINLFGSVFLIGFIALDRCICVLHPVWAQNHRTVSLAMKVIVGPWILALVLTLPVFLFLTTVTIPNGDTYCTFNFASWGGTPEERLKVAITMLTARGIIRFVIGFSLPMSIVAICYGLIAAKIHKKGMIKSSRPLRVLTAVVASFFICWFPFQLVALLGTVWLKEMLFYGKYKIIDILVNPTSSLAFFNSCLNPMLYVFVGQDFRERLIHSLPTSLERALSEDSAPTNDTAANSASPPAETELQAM

For the compound `COc1ccc(-c2cc(C(F)(F)F)nc(N3CCN(Cc4ccccc4)CC3)n2)cc1OC`, the inhibition (as a rule, how much of the control response was suppressed) was 48% (inactive).

Consider `CCC(=O)Nc1cc(-c2cn3cccnc3n2)ccc1OC`, for which the inhibition was 36% (inactive).

`COc1ccc(-c2cn3cccnc3n2)cc1NC(=O)C1CC1`: the inhibition was 79%.

Consider `COc1ccc(-c2cn3cccnc3n2)cc1NC(=O)C(C)C`, for which the inhibition was 93%.

Regarding `COc1ccc(CC(=O)Nc2cc(-c3cn4cccnc4n3)ccc2OC)cc1`, the inhibition is 75%.
